Patent publication US20020035061A1, “COMPOSITIONS AND METHODS FOR TREATING INFECTIONS USING CATIONIC PEPTIDES ALONE OR IN COMBINATION WITH ANTIBIOTICS” (priority 1996, published 2002)
Where two headings read alike, the source gives them in different places.

Experiments:
Type in all cases: cell-based
[1] = system: A. calcoaceticus
[2] = system: E. cloacae
[3] = system: E. coli
[4] = system: E. faecalis
[5] = system: K. pneumoniae
[6] = system: P. aeruginosa
[7] = system: S. aureus
[8] = system: S. epidermidis
[9] = system: S. maltophilia
[10] = system: S. marcescens
[11] = system: bacterial isolates; assay: microbe, parasite or virus in culture
[12] = system: inherently resistant microorganisms; assay: microbe, parasite or virus in culture
[13] = system: microorganisms with acquired resistance; assay: microbe, parasite or virus in culture
[14] = peptide + Amikacin, P. aeruginosa PA022
[15] = peptide + Gentamicin, A. baumannii ABI001
[16] = peptide + Gentamicin, A. baumannii ABI002
[17] = peptide + Gentamicin, A. calcoaceticus AC001
[18] = peptide + Gentamicin, P. aeruginosa PA041
[19] = peptide + Gentamicin, S. maltophilia SMA019

ILRWPWWPWRRKIMILKKAGS [MBI 11B16CN]
MIC ([1]; A. calcoaceticus strain AC002): 4 µg/mL | MIC ([2]; E. cloacae strain ECL007): >128 µg/mL | MIC ([3]; E. coli strain ECO005): 16 µg/mL | MIC ([4]; E. faecalis strain EFS001): 2 µg/mL | MIC ([5]; K. pneumoniae strain KP001): 16 µg/mL | MIC ([6]; P. aeruginosa strain PA004): >128 µg/mL | MIC ([7]; S. aureus strain SA093): 2 µg/mL | MIC ([8]; S. epidermidis strain SE010): 4 µg/mL | MIC ([9]; S. maltophilia strain SMA002): 32 µg/mL | MIC ([10]; S. marcescens strain SMS003): >128 µg/mL | Peptide MIC Alone ([11]; 1. Amikacin, A. baumannii ABI001): 32 µg/mL | Peptide MIC Alone ([11]; 1. Amikacin, A. baumannii ABI003): 16 µg/mL | Peptide MIC Alone ([11]; 1. Amikacin, E. faecalis EFS008): 8 µg/mL | Peptide MIC Alone ([11]; 1. Amikacin, P. aeruginosa PA022): 64 µg/mL | Peptide MIC Alone ([11]; 1. Amikacin, P. aeruginosa PA037): >128 µg/mL | Peptide MIC Alone ([11]; 1. Amikacin, S. maltophilia SMA018): 32 µg/mL | Peptide MIC Alone ([11]; 1. Amikacin, S. maltophilia SMA022): >128 µg/mL | Peptide MIC Alone ([11]; 4. Gentamicin, A. baumannii ABI001): 16 µg/mL | Peptide MIC Alone ([11]; 4. Gentamicin, A. baumannii ABI002): 16 µg/mL | Peptide MIC Alone ([11]; 4. Gentamicin, A. calcoaceticus AC001): 32 µg/mL | Peptide MIC Alone ([11]; 4. Gentamicin, E. faecalis EFS008): 4 µg/mL | Peptide MIC Alone ([11]; 4. Gentamicin, P. aeruginosa PA022): 64 µg/mL | Peptide MIC Alone ([11]; 4. Gentamicin, P. aeruginosa PA041): >128 µg/mL | Peptide MIC Alone ([11]; 4. Gentamicin, S. aureus SA014 MRSA): 8 µg/mL | Peptide MIC Alone ([11]; 4. Gentamicin, S. maltophilia SMA016): >128 µg/mL | Peptide MIC Alone ([11]; 4. Gentamicin, S. maltophilia SMA019): 32 µg/mL | Amikacin MIC + Peptide ([11]; A. baumannii ABI001): 0.125 µg/mL | Gentamicin MIC + Peptide ([11]; A. baumannii ABI001): 4 µg/mL | Peptide MIC + Amikacin ([11]; A. baumannii ABI001): 16 µg/mL | Peptide MIC + Gentamicin ([11]; A. baumannii ABI001): 4 µg/mL | Gentamicin MIC + Peptide ([11]; A. baumannii ABI002): 2 µg/mL | Peptide MIC + Gentamicin ([11]; A. baumannii ABI002): 4 µg/mL | Amikacin MIC + Peptide ([11]; A. baumannii ABI003): 0.5 µg/mL | Peptide MIC + Amikacin ([11]; A. baumannii ABI003): 8 µg/mL | Gentamicin MIC + Peptide ([11]; A. calcoaceticus AC001): 1 µg/mL | Peptide MIC + Gentamicin ([11]; A. calcoaceticus AC001): 4 µg/mL | Amikacin MIC + Peptide ([11]; E. faecalis EFS008): 8 µg/mL | Gentamicin MIC + Peptide ([11]; E. faecalis EFS008): 64 µg/mL | Peptide MIC + Amikacin ([11]; E. faecalis EFS008): 0.25 µg/mL | Peptide MIC + Gentamicin ([11]; E. faecalis EFS008): 0.5 µg/mL | Amikacin MIC + Peptide ([11]; P. aeruginosa PA022): 8 µg/mL | Gentamicin MIC + Peptide ([11]; P. aeruginosa PA022): 8 µg/mL | Peptide MIC + Amikacin ([11]; P. aeruginosa PA022): 16 µg/mL | Peptide MIC + Gentamicin ([11]; P. aeruginosa PA022): 8 µg/mL | Amikacin MIC + Peptide ([11]; P. aeruginosa PA037): 2 µg/mL | Peptide MIC + Amikacin ([11]; P. aeruginosa PA037): 32 µg/mL | Gentamicin MIC + Peptide ([11]; P. aeruginosa PA041): 2 µg/mL | Peptide MIC + Gentamicin ([11]; P. aeruginosa PA041): 16 µg/mL | Gentamicin MIC + Peptide ([11]; S. aureus SA014 MRSA): 1 µg/mL | Peptide MIC + Gentamicin ([11]; S. aureus SA014 MRSA): 4 µg/mL | Gentamicin MIC + Peptide ([11]; S. maltophilia SMA016): 64 µg/mL | Peptide MIC + Gentamicin ([11]; S. maltophilia SMA016): 16 µg/mL | Amikacin MIC + Peptide ([11]; S. maltophilia SMA018): 8 µg/mL | Peptide MIC + Amikacin ([11]; S. maltophilia SMA018): 8 µg/mL | Gentamicin MIC + Peptide ([11]; S. maltophilia SMA019): 8 µg/mL | Peptide MIC + Gentamicin ([11]; S. maltophilia SMA019): 8 µg/mL | Amikacin MIC + Peptide ([11]; S. maltophilia SMA022): 8 µg/mL | Peptide MIC + Amikacin ([11]; S. maltophilia SMA022): 16 µg/mL | FIC ([11]; peptide + Amikacin, A. baumannii ABI001): 0.50 | FIC ([11]; peptide + Amikacin, A. baumannii ABI003): 0.53 | FIC ([11]; peptide + Amikacin, E. faecalis EFS008): 0.28 | FIC [11, 14]: 0.38 | FIC ([11]; peptide + Amikacin, P. aeruginosa PA037): 0.25 | FIC ([11]; peptide + Amikacin, S. maltophilia SMA018): 0.31 | FIC ([11]; peptide + Amikacin, S. maltophilia SMA022): 0.09 | FIC [11, 15]: 0.31 | FIC [11, 16]: 0.31 | FIC [11, 17]: 0.25 | FIC ([11]; peptide + Gentamicin, E. faecalis EFS008): 0.38 | FIC ([11]; peptide + Gentamicin, P. aeruginosa PA022): 0.38 | FIC [11, 18]: 0.31 | FIC ([11]; peptide + Gentamicin, S. aureus SA014 MRSA): 0.53 | FIC ([11]; peptide + Gentamicin, S. maltophilia SMA016): 0.31 | FIC [11, 19]: 0.38 | Peptide MIC + Amikacin ([12]; A. baumannii): 4 µg/mL | Peptide MIC Alone ([12]; A. baumannii, Amikacin section): 32 µg/mL | Peptide MIC + Amikacin ([12]; S. aureus MRSA): 4 µg/mL | Peptide MIC + Gentamicin ([12]; S. aureus MRSA): 4 µg/mL | Peptide MIC Alone ([12]; S. aureus MRSA, Amikacin section): 8 µg/mL | Peptide MIC Alone ([12]; S. aureus MRSA, Gentamicin section): 8 µg/mL | FIC ([12]; peptide + Amikacin, A. baumannii): 0.25 | FIC ([12]; peptide + Gentamicin, S. aureus MRSA): 0.53 | Gentamicin MIC + Peptide ([13]; A. baumannii ABI001): 4 µg/mL | Peptide MIC + Gentamicin ([13]; A. baumannii ABI001): 4 µg/mL | Peptide MIC Alone ([13]; A. baumannii ABI001, Gentamicin section): 16 µg/mL | Gentamicin MIC + Peptide ([13]; A. baumannii ABI002): 2 µg/mL | Peptide MIC + Gentamicin ([13]; A. baumannii ABI002): 4 µg/mL | Peptide MIC Alone ([13]; A. baumannii ABI002, Gentamicin section): 16 µg/mL | Gentamicin MIC + Peptide ([13]; A. calcoaceticus AC001): 1 µg/mL | Peptide MIC + Gentamicin ([13]; A. calcoaceticus AC001): 4 µg/mL | Peptide MIC Alone ([13]; A. calcoaceticus AC001, Gentamicin section): 32 µg/mL | Amikacin MIC + Peptide ([13]; P. aeruginosa PA022): 8 µg/mL | Peptide MIC + Amikacin ([13]; P. aeruginosa PA022): 16 µg/mL | Peptide MIC Alone ([13]; P. aeruginosa PA022, Amikacin section): 64 µg/mL | Gentamicin MIC + Peptide ([13]; P. aeruginosa PA023): 4 µg/mL | Peptide MIC + Gentamicin ([13]; P. aeruginosa PA023): 16 µg/mL | Peptide MIC Alone ([13]; P. aeruginosa PA023, Gentamicin section): >128 µg/mL | Gentamicin MIC + Peptide ([13]; P. aeruginosa PA041): 2 µg/mL | Peptide MIC + Gentamicin ([13]; P. aeruginosa PA041): 16 µg/mL | Peptide MIC Alone ([13]; P. aeruginosa PA041, Gentamicin section): >128 µg/mL | Gentamicin MIC + Peptide ([13]; S. maltophilia SMA017): 2 µg/mL | Peptide MIC + Gentamicin ([13]; S. maltophilia SMA017): 16 µg/mL | Peptide MIC Alone ([13]; S. maltophilia SMA017, Gentamicin section): 128 µg/mL | Gentamicin MIC + Peptide ([13]; S. maltophilia SMA019): 0.5 µg/mL | Peptide MIC + Gentamicin ([13]; S. maltophilia SMA019): 16 µg/mL | Peptide MIC Alone ([13]; S. maltophilia SMA019, Gentamicin section): 32 µg/mL | FIC [13, 14]: 0.38 | FIC [13, 15]: 0.31 | FIC [13, 16]: 0.31 | FIC [13, 17]: 0.25 | FIC ([13]; peptide + Gentamicin, P. aeruginosa PA023): 0.56 | FIC [13, 18]: 0.31 | FIC ([13]; peptide + Gentamicin, S. maltophilia SMA017): 0.16 | FIC [13, 19]: 0.51

PRIWKPKWRLPKR [MBI 11J01CN]
MIC ([1]; A. calcoaceticus AC002): 4 µg/mL | MIC ([2]; E. cloacae ECL007): >128 µg/mL | MIC ([3]; E. coli ECO005): 64 µg/mL | MIC ([4]; E. faecalis EFS001): 128 µg/mL | MIC ([4]; E. faecalis EFS008): >128 µg/mL | MIC ([5]; K. pneumoniae KP001): >128 µg/mL | MIC ([6]; P. aeruginosa PA004): >128 µg/mL | MIC ([7]; S. aureus SA014): 16 µg/mL | MIC ([7]; S. aureus SA093): 2 µg/mL | MIC ([8]; S. epidermidis SE010): 32 µg/mL | MIC ([9]; S. maltophilia SMA002): >128 µg/mL | MIC ([10]; S. marcescens SMS003): >128 µg/mL

RWWWPWRRK [MBI 11G28CN]
MIC ([1]; A. calcoaceticus AC002): 2 µg/mL | MIC ([2]; E. cloacae ECL007): >128 µg/mL | MIC ([3]; E. coli ECO005): 8 µg/mL | MIC ([4]; E. faecalis EFS001): 4 µg/mL | MIC ([4]; E. faecalis EFS008): 32 µg/mL | MIC ([5]; K. pneumoniae KP001): 64 µg/mL | MIC ([6]; P. aeruginosa PA004): 128 µg/mL | MIC ([7]; S. aureus SA014): 4 µg/mL | MIC ([7]; S. aureus SA093): 1 µg/mL | MIC ([8]; S. epidermidis SE010): 4 µg/mL | MIC ([9]; S. maltophilia SMA002): 32 µg/mL | MIC ([10]; S. marcescens SMS003): >128 µg/mL

WPWWPWRRK [MBI 11G27CN]
MIC ([1]; A. calcoaceticus AC002): 2 µg/mL | MIC ([2]; E. cloacae ECL007): >128 µg/mL | MIC ([3]; E. coli ECO005): 16 µg/mL | MIC ([4]; E. faecalis EFS001): 8 µg/mL | MIC ([4]; E. faecalis EFS008): 32 µg/mL | MIC ([5]; K. pneumoniae KP001): 32 µg/mL | MIC ([6]; P. aeruginosa PA004): 128 µg/mL | MIC ([7]; S. aureus SA014): 4 µg/mL | MIC ([7]; S. aureus SA093): 1 µg/mL | MIC ([8]; S. epidermidis SE010): 8 µg/mL | MIC ([9]; S. maltophilia SMA002): 32 µg/mL | MIC ([10]; S. marcescens SMS003): >128 µg/mL

WWRWPWWPWRRK [MBI 11A10CN]
MIC ([1]; A. calcoaceticus strain AC002): 4 µg/mL | MIC ([2]; E. cloacae strain ECL007): 64 µg/mL | MIC ([3]; E. coli strain ECO005): 16 µg/mL | MIC ([4]; E. faecalis strain EFS001): 4 µg/mL | MIC ([4]; E. faecalis strain EFS008): 16 µg/mL | MIC ([5]; K. pneumoniae strain KP001): 16 µg/mL | MIC ([6]; P. aeruginosa strain PA004): 64 µg/mL | MIC ([7]; S. aureus strain SA014): 4 µg/mL | MIC ([7]; S. aureus strain SA093): 2 µg/mL | MIC ([8]; S. epidermidis strain SE010): 4 µg/mL | MIC ([9]; S. maltophilia strain SMA002): 32 µg/mL | MIC ([10]; S. marcescens strain SMS003): >128 µg/mL
